This note sets out measurements from ChEMBL document CHEMBL5038614, “Discovery of styrylaniline derivatives as novel alpha-synuclein aggregates ligands” (Eur J Med Chem, 2021).

One series deals with Alpha-synuclein (Homo sapiens, UniProt P37840). Put plainly: Binding affinity to recombinant human alpha-syn aggregates assessed as dissociation constant by SPR analysis.
Series [1] in a line: Brain concentration in Sprague-Dawley rat at 5 mg/kg, iv measured upto 120 mins by LC-MS/MS analysis. The series is classed as ADME, organism-based. The note with it: read-out: Ct.
Series [2] is described as follows: Plasma concentration in Sprague-Dawley rat at 5 mg/kg, iv measured upto 120 mins by LC-MS/MS analysis. The series is classed as ADME, organism-based.
The species entered for series [3] is Mus musculus. Put plainly: Binding affinity to alpha-syn PFF in acute C57BL/6 mouse brain striatum measured after 1 hrs by immunofluorescence confocal microscopic analysis. The format is tissue-based.
Series [4] is described as follows: Ratio of drug concentration in Sprague-Dawley rat brain to plasma at 5 mg/kg, iv measured upto 120 mins by LC-MS/MS analysis. The series is classed as ADME, organism-based. Particulars: read-out: BPR.
Series [5] is described as follows: Permeability of compound in BBB assay. The series is classed as ADME.
Series [6] is filed under the species Mus musculus. Put plainly: Binding affinity to alpha-syn PFF in chronic C57BL/6 mouse brain straitum measured for 1 hrs by immunofluorescence confocal microscopic analysis. The format is tissue-based. Particulars: Striatum.
The species named for series [7] is Mus musculus. Nature of the series: Binding affinity to alpha-syn PFF in chronic C57BL/6 mouse M2 motor cortex measured for 1 hrs by immunofluorescence confocal microscopic analysis. The series is classed as tissue-based.

SMILES strings stand for the structures. Calls of active or inactive are those of the source. The rule behind the calls is not given here. Bounds are passed on as bounds.

Consider `COc1ccc(/C=C/c2ccccc2NC(=O)c2cccnc2)cc1`, for which, at Alpha-synuclein, the Kd is more than 10 µM.
The same measure, in the same setting: with `O=C(Nc1ccc(/C=C/c2ccc(F)cc2)cc1)c1ccccc1` the figure was more than 10 µM; with `O=C(Nc1ccccc1/C=C/c1ccc(F)cc1)c1cccnn1`, more than 10 µM; with `O=C(Nc1ccccc1/C=C/c1ccc([N+](=O)[O-])cc1)c1cccnn1`, more than 10 µM.
`COc1ccc(/C=C/c2ccccc2NC(=O)c2cccnn2)cc1`: the Kd on Alpha-synuclein is more than 10 µM.
On the same count and under the same terms, the result for `COc1ccc(/C=C/c2ccccc2NC(=O)NCc2cnccn2)cc1` reads more than 10 µM; that for `COc1ccc(/C=C/c2ccccc2NC(=O)c2cccs2)cc1`, more than 10 µM.
Turning to `CN(C)c1ccc(/C=C/c2ccccc2NC(=O)c2ccccn2)cc1`, the results for the concentration at 2 h in series [1] and in series [2] were 15.9 µM and 6.06 µM, respectively. The result in the series filed under Mus musculus [3] was inactive. The Kp at 2 h in series [4] came to 2.62. This compound yielded a pBBB in series [5] of more than 0.3. Moreover, the result in the series filed under Mus musculus [6] was Active.
In the case of `COc1ccc(/C=C/c2ccc(NC(=O)c3ccccc3)cc2)cc1`, at Alpha-synuclein, the Kd is more than 10 µM.
As for `O=C(Nc1ccccc1/C=C/c1ccc([N+](=O)[O-])cc1)c1ccccn1`, the result in the series filed under Mus musculus [7], in the series filed under Mus musculus [3] and in the series filed under Mus musculus [6] was Active. Also, the concentration at 2 h worked out at 46.8 µM in series [1] and 38.5 µM in series [2]. For the same compound, the Kp at 2 h in series [4] was determined as 1.21. Moreover, the pBBB in series [5] is more than 0.3.

By Kd is commonly meant the concentration at which binding is half-saturated.
